Values after ≈ are worked out from the molar mass of the structure shown.
Legend:
KBv200 cells = experiment: Sensitizing effect of PA to conventional chemotherapeutic drugs (MTT); assay type: cell-based, human; settings: KBv200, IC50 without sensitizer / with sensitizer 10 μg/mL
Experimental: (§1) The cells at logarithmic phase were collected and added into RPMI 1640 medium (containing 10% fetal bovine serum) to make cell suspensions. The cell suspension was added to 96-well plate at 100 μl per well, and the cell number was 2×10^3 (suspending cells) or 1×10^3 (adherent cells) per well. After inoculation, the suspending cells were adapted for half an hour on the plate and the adherent cells were cultivated to allow adhesion before the drugs were added. The control groups (Ctrl) were added with anti-tumor drugs but without PA. The drug concentration of each PA group was 10 μg/mL. The concentrations of chemotherapeutic drugs increased from 0.001 μg/mL to 20 μg/mL. There Were six parallel repeated wells for every concentration gradient. RPMI 1640 was added up to a finally volume of 200 μl per well. The cells were cultured at the condition of 37° C., saturated humidity, 5% CO2 for 68 hours. The MTT was determined and the IC50 was calculated as in example 4.
(§2) The formula of resistant factor: Resistant Factor (RF)=the IC50 without sensitizer/the IC50 with sensitizer.

K562/Adr cells = experiment: as above; assay type: cell-based, human; settings: IC50 without sensitizer / with sensitizer 10 μg/mL
Experimental: as §1, §2

MCF-7/Adr cells = experiment: as above; assay type: cell-based, human; settings: IC50 without sensitizer / with sensitizer 10 μg/mL
Experimental: as §1, §2

MCF-7/Adr = experiment: Growth inhibiting effect of PA on drug resistant cells (MTT); assay type: cell-based; settings: Homo sapiens, NCI/ADR-RES, PA alone, read-out: IC50 growth inhibition
Experimental: (§3) Methods: 1×10^3 cells per well were inoculated onto a 96-well plate. PA was added to K562/Adr directly and to KBV200 and MCF-7/Adr after adhesion. The concentrations of the drugs were 0, 0.1, 0.5, 1, 5, 10, 20, 40, 80, 160 μg/mL. MTT was determined according to the method of example 2 and the IC50 was calculated. The experiment was repeated three times.

KBv200 = experiment: as above; assay type: cell-based; settings: Homo sapiens; KBv200, PA alone; read-out: IC50 growth inhibition
Experimental: as §3

K562/Adr = experiment: as above; assay type: cell-based; settings: Homo sapiens, PA alone, read-out: IC50 growth inhibition
Experimental: as §3

Compound: CCCCC1OC(=O)C2=C1CCC=C2 (single isomer, unassigned) [S1]
- RF (Ctrl/S), Adr (KBv200 cells): 10.27
- RF (Ctrl/S), DDP (KBv200 cells): 8.063
- RF (Ctrl/S), Taxol (KBv200 cells): 5.245
- RF (Ctrl/S), Vin (KBv200 cells): 13.03
- RF (Ctrl/S), Adr (K562/Adr cells): 34.99
- RF (Ctrl/S), DDP (K562/Adr cells): 5.116
- RF (Ctrl/S), Taxol (K562/Adr cells): 24.04
- RF (Ctrl/S), Vin (K562/Adr cells): 6.214
- RF (Ctrl/S), Adr (MCF-7/Adr cells): 11.34
- RF (Ctrl/S), DDP (MCF-7/Adr cells): 3.376
- RF (Ctrl/S), Taxol (MCF-7/Adr cells): 2.685
- RF (Ctrl/S), Vin (MCF-7/Adr cells): 11.12
- IC50 (MCF-7/Adr): 37.4 ± 3.15 mg/L (≈ 195 µM)
- IC50 (KBv200): 38.7 ± 2.13 mg/L (≈ 201 µM)
- IC50 (K562/Adr): 21.4 ± 1.09 mg/L (≈ 111 µM)

Compound: CCC/C=C1\OC(=O)C2=C1CCC1OC21 (single isomer, unassigned) [S3]
- RF (Ctrl/S), Adr (KBv200 cells): 18.97
- RF (Ctrl/S), DDP (KBv200 cells): 7.188
- RF (Ctrl/S), Taxol (KBv200 cells): 2.548
- RF (Ctrl/S), Vin (KBv200 cells): 6.169
- RF (Ctrl/S), Adr (K562/Adr cells): 13.93
- RF (Ctrl/S), DDP (K562/Adr cells): 2.239
- RF (Ctrl/S), Taxol (K562/Adr cells): 5.740
- RF (Ctrl/S), Vin (K562/Adr cells): 4.899
- RF (Ctrl/S), Adr (MCF-7/Adr cells): 4.153
- RF (Ctrl/S), DDP (MCF-7/Adr cells): 6.708
- RF (Ctrl/S), Taxol (MCF-7/Adr cells): 3.232
- RF (Ctrl/S), Vin (MCF-7/Adr cells): 4.008
- IC50 (MCF-7/Adr): 34 ± 3.76 mg/L (≈ 165 µM)
- IC50 (KBv200): 27.4 ± 1.06 mg/L (≈ 133 µM)
- IC50 (K562/Adr): 39.2 ± 1.58 mg/L (≈ 190 µM)

Compound: CCC/C=C1\OC(=O)C2=C1CCC(O)C2O (single isomer, unassigned) [S5]
- RF (Ctrl/S), Adr (KBv200 cells): 16.95
- RF (Ctrl/S), DDP (KBv200 cells): 3.208
- RF (Ctrl/S), Taxol (KBv200 cells): 13.88
- RF (Ctrl/S), Vin (KBv200 cells): 2.088
- RF (Ctrl/S), Adr (K562/Adr cells): 6.264
- RF (Ctrl/S), DDP (K562/Adr cells): 2.104
- RF (Ctrl/S), Taxol (K562/Adr cells): 2.117
- RF (Ctrl/S), Vin (K562/Adr cells): 3.109
- RF (Ctrl/S), Adr (MCF-7/Adr cells): 5.02
- RF (Ctrl/S), DDP (MCF-7/Adr cells): 4.508
- RF (Ctrl/S), Taxol (MCF-7/Adr cells): 15.62
- RF (Ctrl/S), Vin (MCF-7/Adr cells): 6.934
- IC50 (MCF-7/Adr): 39.3 ± 2.14 mg/L (≈ 175 µM)
- IC50 (KBv200): 29.8 ± 1.05 mg/L (≈ 133 µM)
- IC50 (K562/Adr): 18.3 ± 0.762 mg/L (≈ 81.6 µM)

Compound: CCCCC1OC(=O)c2cccc(O)c21 (stereo not drawn) [S2]
- RF (Ctrl/S), Adr (KBv200 cells): 12.23
- RF (Ctrl/S), DDP (KBv200 cells): 2.767
- RF (Ctrl/S), Taxol (KBv200 cells): 10.83
- RF (Ctrl/S), Vin (KBv200 cells): 11.40
- RF (Ctrl/S), Adr (K562/Adr cells): 41.12
- RF (Ctrl/S), DDP (K562/Adr cells): 5.698
- RF (Ctrl/S), Taxol (K562/Adr cells): 10.57
- RF (Ctrl/S), Vin (K562/Adr cells): 1.757
- RF (Ctrl/S), Adr (MCF-7/Adr cells): 6.939
- RF (Ctrl/S), DDP (MCF-7/Adr cells): 2.565
- RF (Ctrl/S), Taxol (MCF-7/Adr cells): 10.19
- RF (Ctrl/S), Vin (MCF-7/Adr cells): 6.239
- IC50 (MCF-7/Adr): 29.4 ± 2.8 mg/L (≈ 143 µM)
- IC50 (KBv200): 26.4 ± 1.98 mg/L (≈ 128 µM)
- IC50 (K562/Adr): 41.4 ± 3.53 mg/L (≈ 201 µM)

Compound: CCC/C=C1\OC(=O)C2=C1CCC=C2 [S4]
- RF (Ctrl/S), Adr (KBv200 cells): 5.331
- RF (Ctrl/S), DDP (KBv200 cells): 6.981
- RF (Ctrl/S), Taxol (KBv200 cells): 6.416
- RF (Ctrl/S), Vin (KBv200 cells): 13.02
- RF (Ctrl/S), Adr (K562/Adr cells): 6.349
- RF (Ctrl/S), DDP (K562/Adr cells): 3.007
- RF (Ctrl/S), Taxol (K562/Adr cells): 2.412
- RF (Ctrl/S), Vin (K562/Adr cells): 6.432
- RF (Ctrl/S), Adr (MCF-7/Adr cells): 3.114
- RF (Ctrl/S), DDP (MCF-7/Adr cells): 5.125
- RF (Ctrl/S), Taxol (MCF-7/Adr cells): 4.279
- RF (Ctrl/S), Vin (MCF-7/Adr cells): 26.01
- IC50 (MCF-7/Adr): 47.3 ± 2.12 mg/L (≈ 249 µM)
- IC50 (KBv200): 32.5 ± 1.03 mg/L (≈ 171 µM)
- IC50 (K562/Adr): 32.4 ± 1.13 mg/L (≈ 170 µM)

Compound: CCC/C=C1\OC(=O)C2=C1CC[C@H]1C3C=C4C(=O)O/C(=C\CCC)[C@@]4(CC3)C21 (stereo partly drawn) [S6]
- RF (Ctrl/S), Adr (KBv200 cells): 2.297
- RF (Ctrl/S), DDP (KBv200 cells): 2.622
- RF (Ctrl/S), Taxol (KBv200 cells): 8.72
- RF (Ctrl/S), Vin (KBv200 cells): 3.342
- RF (Ctrl/S), Adr (K562/Adr cells): 6.249
- RF (Ctrl/S), DDP (K562/Adr cells): 1.371
- RF (Ctrl/S), Taxol (K562/Adr cells): 1.641
- RF (Ctrl/S), Vin (K562/Adr cells): 1.833
- RF (Ctrl/S), Adr (MCF-7/Adr cells): 12.59
- RF (Ctrl/S), DDP (MCF-7/Adr cells): 2.539
- RF (Ctrl/S), Taxol (MCF-7/Adr cells): 3.932
- RF (Ctrl/S), Vin (MCF-7/Adr cells): 13.22
- IC50 (MCF-7/Adr): 44.5 ± 3.99 mg/L (≈ 117 µM)
- IC50 (KBv200): 35.2 ± 2.15 mg/L (≈ 92.6 µM)
- IC50 (K562/Adr): 29.8 ± 0.995 mg/L (≈ 78.3 µM)

Compound: CCC/C=C1\OC(=O)C2=C1CCC1C(CCC)C3(OC(=O)C4=C3CCC=C4)C21 (stereo not drawn) [S7]
- RF (Ctrl/S), Adr (KBv200 cells): 2.405
- RF (Ctrl/S), DDP (KBv200 cells): 5.939
- RF (Ctrl/S), Taxol (KBv200 cells): 5.179
- RF (Ctrl/S), Vin (KBv200 cells): 7.376
- RF (Ctrl/S), Adr (K562/Adr cells): 8.257
- RF (Ctrl/S), DDP (K562/Adr cells): 0.653
- RF (Ctrl/S), Taxol (K562/Adr cells): 1.550
- RF (Ctrl/S), Vin (K562/Adr cells): 3.963
- RF (Ctrl/S), Adr (MCF-7/Adr cells): 14.12
- RF (Ctrl/S), DDP (MCF-7/Adr cells): 6.516
- RF (Ctrl/S), Taxol (MCF-7/Adr cells): 7.023
- RF (Ctrl/S), Vin (MCF-7/Adr cells): 3.831
- IC50 (MCF-7/Adr): 39.6 ± 4.61 mg/L (≈ 104 µM)
- IC50 (KBv200): 36.9 ± 2.19 mg/L (≈ 97 µM)
- IC50 (K562/Adr): 20.4 ± 2.61 mg/L (≈ 53.7 µM)

Compound: CCC/C=C1\OC(=O)C2=CC3CC[C@]21C1C2=C(CC[C@@H]31)C(CCCC)OC2=O (stereo partly drawn) [S8]
- RF (Ctrl/S), Adr (KBv200 cells): 3.623
- RF (Ctrl/S), DDP (KBv200 cells): 4.375
- RF (Ctrl/S), Taxol (KBv200 cells): 3.87
- RF (Ctrl/S), Vin (KBv200 cells): 7.326
- RF (Ctrl/S), Adr (K562/Adr cells): 1.796
- RF (Ctrl/S), DDP (K562/Adr cells): 2.722
- RF (Ctrl/S), Taxol (K562/Adr cells): 3.506
- RF (Ctrl/S), Vin (K562/Adr cells): 7.918
- RF (Ctrl/S), Adr (MCF-7/Adr cells): 5.639
- RF (Ctrl/S), DDP (MCF-7/Adr cells): 6.407
- RF (Ctrl/S), Taxol (MCF-7/Adr cells): 1.612
- RF (Ctrl/S), Vin (MCF-7/Adr cells): 9.597
- IC50 (MCF-7/Adr): 43.2 ± 3.14 mg/L (≈ 113 µM)
- IC50 (KBv200): 38.6 ± 2.17 mg/L (≈ 101 µM)
- IC50 (K562/Adr): 31.3 ± 1.87 mg/L (≈ 81.8 µM)
